Experimental data reported in ChEMBL document CHEMBL1133936, “The synthesis and tubulin binding activity of thiophene-based analogues of combretastatin A-4” (Bioorg Med Chem Lett, 2001).

What was measured:
MCF7 = assay: Cytotoxicity was determined by inhibition of cell growth of MCF-7 human breast carcinoma cell; format: functional, cell-based
[1] = target: Tubulin alpha chain (Sus scrofa) (UniProt P02550); assay: Inhibition of [3H]colchicine binding to tubulin at a concentration of 5.0 uM
Tubulin alpha chain = Tubulin alpha chain (Sus scrofa, UniProt P02550); assay: Compound was evaluated for inhibition of tubulin polymerization; format: functional
[2] = target: Tubulin alpha chain (Sus scrofa) (UniProt P02550); assay: Inhibition of [3H]colchicine binding to tubulin at a concentration of 50 uM
CA46 = assay: Cytotoxicity was determined by inhibition against the Burkitt lymphoma CA46 cell line; format: functional, cell-based; conditions: Homo sapiens

Tubulin alpha chain, sequence (P02550 whole entry, looked up): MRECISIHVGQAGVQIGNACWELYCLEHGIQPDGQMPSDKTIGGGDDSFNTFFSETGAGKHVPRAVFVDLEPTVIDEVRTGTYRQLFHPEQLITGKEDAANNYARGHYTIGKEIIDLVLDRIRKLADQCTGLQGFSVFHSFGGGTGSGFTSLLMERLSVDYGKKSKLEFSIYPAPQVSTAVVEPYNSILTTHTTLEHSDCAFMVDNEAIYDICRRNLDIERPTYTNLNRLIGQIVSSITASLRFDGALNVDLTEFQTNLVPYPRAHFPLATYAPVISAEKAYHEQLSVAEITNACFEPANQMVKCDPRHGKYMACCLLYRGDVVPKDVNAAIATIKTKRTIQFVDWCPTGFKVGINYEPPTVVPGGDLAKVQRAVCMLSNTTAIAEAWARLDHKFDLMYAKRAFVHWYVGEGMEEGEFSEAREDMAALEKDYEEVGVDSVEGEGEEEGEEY
Tubulin alpha chain (Sus scrofa), sequence (P02550 whole entry, looked up): as above

Structure (SMILES)	IC50 (MCF7)	inhibition [1]	IC50 (Tubulin alpha chain)	inhibition [2]	IC50 (CA46)
COc1ccc(-c2sccc2C(=O)c2cc(OC)c(OC)c(OC)c2)cc1O	0.3 µM	67%	1 µM		
COc1ccc2c(C(=O)c3cc(OC)c(OC)c(OC)c3)c(-c3ccc(OC)c(O)c3)sc2c1		21%			
COc1ccc(C(O)c2ccsc2-c2cc(OC)c(OC)c(OC)c2)cc1O (configuration not stated)	0.5 µM	26%	8.8 µM	74%	
COc1ccc(C2=C(c3cc(OC)c(OC)c(OC)c3)CCS2)cc1O	0.39 µM	64%	3.6 µM	88%	
COc1ccc(C(=O)c2ccsc2-c2cc(OC)c(OC)c(OC)c2)cc1O			> 40 µM		
COc1ccc2c(C(O)c3ccc(OC)c(O)c3)c(-c3cc(OC)c(OC)c(OC)c3)sc2c1 (configuration not stated)		5%	6.1 µM	73%	> 1 µM
